From patent US20240058312A1, “METHODS AND MATERIALS FOR TREATING BONE LOSS” (The Penn State Research Foundation, priority 2021, published 2024)

Legend:
[1] = system: C57BL/6J mice with sciatic nerve, biceps femoris and quadriceps femoris muscle crush injury; test: DEXA scanning of tibial bone after sciatic nerve and muscle crush injury; type: in vivo; settings: 40 μg/mouse/day IP for 21 days
Procedure: Ten-week-old male C57BL/6J mice (Jackson Laboratories, Bar Harbor, Maine) weighing 25±3 g were used. Sciatic nerve crush injury was performed with muscle crush injury as described elsewhere (Govindappa et al., Int. Immunopharmacol., 82:106330 (2020)). Briefly, after intraperitoneal (IP) ketamine (100 mg/kg)/xylazine (10 mg/kg) anesthesia, the right hindlimb was shaved and prepared with alcohol swabs and povidone-iodine (Betadine). Using a stereo zoom binocular microscope, a lateral skin incision (˜3 cm) was made along the length of the femur and the sciatic nerve (SN) was bluntly exposed through the iliotibial band. Nerve crush injury was performed ˜3 mm proximal to the SN trifurcation and muscle crush injury was performed at the center of Biceps femoris (BF) and Quadriceps femoris (QF) muscle using calibrated forceps (5 mm tip width; 18-1107, Miltex Instruments) for 30 seconds (nerve) and 60 seconds (muscles), respectively. Uninjured contralateral normal limbs were kept without injury as controls. The skin was closed using surgical staples and post-operative slow-release buprenorphine (0.05 mg/kg) was given subcutaneously to all animals as an analgesic. […]
The data were analyzed using one-way and two-way analysis of variance (ANOVA) using GraphPad Prism Version 8.2.0. […]

[2] = system: C57BL/6J mice with sciatic nerve, biceps femoris and quadriceps femoris muscle crush injury; test: micro-CT of tibial bone microarchitecture after sciatic nerve and muscle crush injury; type: in vivo; settings: tibial metaphysis, 40 μg/mouse/day IP for 21 days, vs. saline
Procedure: Ten-week-old male C57BL/6J mice (Jackson Laboratories, Bar Harbor, Maine) weighing 25±3 g were used. Sciatic nerve crush injury was performed with muscle crush injury as described elsewhere (Govindappa et al., Int. Immunopharmacol., 82:106330 (2020)). Briefly, after intraperitoneal (IP) ketamine (100 mg/kg)/xylazine (10 mg/kg) anesthesia, the right hindlimb was shaved and prepared with alcohol swabs and povidone-iodine (Betadine). Using a stereo zoom binocular microscope, a lateral skin incision (˜3 cm) was made along the length of the femur and the sciatic nerve (SN) was bluntly exposed through the iliotibial band. Nerve crush injury was performed ˜3 mm proximal to the SN trifurcation and muscle crush injury was performed at the center of Biceps femoris (BF) and Quadriceps femoris (QF) muscle using calibrated forceps (5 mm tip width; 18-1107, Miltex Instruments) for 30 seconds (nerve) and 60 seconds (muscles), respectively. Uninjured contralateral normal limbs were kept without injury as controls. The skin was closed using surgical staples and post-operative slow-release buprenorphine (0.05 mg/kg) was given subcutaneously to all animals as an analgesic.
The experimental animals (6 animals/group) were randomized to normal saline (0.1 mL/mouse) and 4-AP (40 μg/mouse) treatment groups. 4-AP was given by IP injection immediately after surgery and daily for 21 days. Animals were euthanized using isoflurane on post-injury day 22 to harvest hindlimbs. Harvested hindlimbs were subjected to dual-energy X-ray absorptiometry (DEXA) and microcomputed tomography (micro-CT) scanning to analyze the bone quality.
The data were analyzed using one-way and two-way analysis of variance (ANOVA) using GraphPad Prism Version 8.2.0. All values are presented as mean±SEM. Probability (P) values of <0.05 were considered statistically significant.

## Nc1ccncc1 [4-AP, 4-aminopyridine]
[1]; combined nerve and muscle crush injury, P<0.05 vs. saline, FIG. 1A
  tibial bone volume: significantly improves
[1]; nerve and muscle injury associated tibial bone, mean, P<0.05 vs. saline (76.57)
  BMD (bone mineral density) of tibial bone: 79.75 mg/cm^2
[2]
  bone volume fraction: upregulating
  structural model index (SMI): downregulated
  trabecular separation: downregulated
  trabecular thickness: upregulating
